Where a name gives a salt, the structure may show the parent alone. Read-outs that look alike come from different tables or passages of the source.
System: Acinetobacter baumannii ATCC17961
Assay: Antimicrobial susceptibility testing: 90% growth inhibitory concentration (IC90) determination in Iso-Sensitest broth, OD600 growth
Format: cell-based
Method in brief: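 Compounds were twofold serially diluted in DMSO across 10 points (e.g. 50 to 0.097 μM final) and inoculated at ~5×10^(5) CFU/ml. Plates incubated at 35±2° C, with OD600 read every 20 minutes over 16 h. IC90 was derived from growth inhibition during logarithmic growth.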

[1] = strain ATCC 17961, OD600 growth over 16 h, read-out: A. baumannii ATCC 17961 IC90
[2] = Acinetobacter baumannii, ATCC17961, 16 h, read-out: A. baumannii ATCC 17961 IC90 (uM), strain ATCC 17961, OD600 growth over 16 h
[3] = Acinetobacter baumannii, ATCC17961, 16 h, strain ATCC 17961, OD600 growth over 16 h, read-out: A. baumannii ATCC 17961 IC90

SMILES	IC90 [2] [µM]	also measured
N#CCn1cc(-c2cnc3c(Nc4ccc(C(=O)N5CCN(C(=O)NC6CNC6)CC5)c(Cl)c4)nccn23)c(C(F)(F)F)n1 [Example 214, N-(azetidin-3-yl)-4-[2-chloro-4-[[3-[1-(cyanomethyl)-3-(trifluoromethyl)pyrazol-4-yl]imidazo[1,2-a]pyrazin-8-yl]amino]benzoyl] piperazine-1-carboxamide formate]	–	IC90 [1]: 0.349 µM
CCc1cc(Nc2nccn3c(-c4c[nH]nc4C(F)(F)F)cnc23)ccc1C(=O)NCCCNC(=O)CCCN [Example 215, N-[3-(4-aminobutanoylamino)propyl]-2-ethyl-4-[[3-[3-(trifluoromethyl)-1H-pyrazol-4-yl]imidazo[1,2-a]pyrazin-8-yl]amino]benzamide formate]	0.394	–
CCc1cc(Nc2nccn3c(-c4c[nH]nc4C(F)(F)F)cnc23)ccc1C(=O)NCCNC(=O)CCCN [Example 217, N-[2-(4-aminobutanoylamino)ethyl]-2-ethyl-4-[[3-[3-(trifluoromethyl)-1H-pyrazol-4-yl]imidazo[1,2-a]pyrazin-8-yl]amino]benzamide formate]	0.543	–
CCc1cc(Nc2nccn3c(-c4c[nH]nc4C(F)(F)F)cnc23)ccc1C(=O)NCCNC(=O)NCCN [Example 218, N-[2-(2-aminoethylcarbamoylamino)ethyl]-2-ethyl-4-[[3-[3-(trifluoromethyl)-1H-pyrazol-4-yl]imidazo[1,2-a]pyrazin-8-yl]amino]benzamide formate]	0.574	–
CCc1cc(Nc2nccn3c(-c4cn(CC#N)nc4C(F)(F)F)cnc23)ccc1C(=O)N1CCC(O)(CNC)CC1 [Example 219, 2-[4-[8-[3-ethyl-4-[4-hydroxy-4-(methylaminomethyl)piperidine-1-carbonyl]anilino]imidazo[1,2-a]pyrazin-3-yl]-3-(trifluoromethyl)pyrazol-1-yl]acetonitrile formate]	0.599	–
CCc1cc(Nc2nccn3c(-c4c[nH]nc4C(F)(F)F)cnc23)ccc1C(=O)NCCNC(=O)CCN [Example 220, N-[2-(3-aminopropanoylamino)ethyl]-2-ethyl-4-[[3-[3-(trifluoromethyl)-1H-pyrazol-4-yl]imidazo[1,2-a]pyrazin-8-yl]amino]benzamide formate]	0.51	–
CCc1cc(Nc2nccn3c(-c4c[nH]nc4C(F)(F)F)cnc23)ccc1C(=O)NCCNC(=O)[C@@H](N)CCCCN [Example 221, N-[2-[[(2S)-2,6-diaminohexanoyl]amino]ethyl]-2-ethyl-4-[[3-[3-(trifluoromethyl)-1H-pyrazol-4-yl]imidazo[1,2-a]pyrazin-8-yl]amino]benzamide formate]	0.922	–
NCCNC(=O)NCCNC(=O)c1ccc(Nc2nccn3c(-c4c[nH]nc4C(F)(F)F)cnc23)cc1Cl [Example 222, N-[2-(2-aminoethylcarbamoylamino)ethyl]-2-chloro-4-[[3-[3-(trifluoromethyl)-1H-pyrazol-4-yl]imidazo[1,2-a]pyrazin-8-yl]amino]benzamide formate]	1.09	–
CCOCCCNC(=O)c1ccc(Nc2nccn3c(-c4c[nH]nc4C(F)(F)F)cnc23)cc1CC [Example 223, N-(3-ethoxypropyl)-2-ethyl-4-[[3-[3-(trifluoromethyl)-1H-pyrazol-4-yl]imidazo[1,2-a]pyrazin-8-yl]amino]benzamide]	–	IC90 [3]: 1.12 µM
NCCCC[C@H](N)C(=O)NCCNC(=O)c1ccc(Nc2nccn3c(-c4c[nH]nc4C(F)(F)F)cnc23)cc1Cl [Example 224, 2-chloro-N-[2-[[(2S)-2,6-diaminohexanoyl]amino]ethyl]-4-[[3-[3-(trifluoromethyl)-1H-pyrazol-4-yl]imidazo[1,2-a]pyrazin-8-yl]amino]benzamide formate]	1.5	–
N[C@H]1C[C@H]1C(=O)N1CCN(C(=O)c2ccc(Nc3nccn4c(-c5c[nH]nc5C(F)(F)F)cnc34)cc2Cl)CC1 [Example 225, [4-[(1R,2S)-2-aminocyclopropanecarbonyl]piperazin-1-yl]-[2-chloro-4-[[3-[3-(trifluoromethyl)-1H-pyrazol-4-yl]imidazo[1,2-a]pyrazin-8-yl]amino]phenyl] methanone formate]	1.81	–
N#CCn1cc(-c2cnc3c(Nc4ccc(C(=O)N5CCNCC5)c(Cl)c4)nccn23)c(C(F)(F)F)n1 [Example 226, 2-[4-[8-[3-chloro-4-(piperazine-1-carbonyl)anilino]imidazo[1,2-a]pyrazin-3-yl]-3-(trifluoromethyl)pyrazol-1-yl]acetonitrile]	–	IC90 [3]: 0.088 µM
CCc1cc(Nc2nccn3c(-c4cn(CC#N)nc4C(F)(F)F)cnc23)ccc1C(=O)NCCCCCCN [Example 227, N-(6-aminohexyl)-4-[[3-[1-(cyanomethyl)-3-(trifluoromethyl)pyrazol-4-yl]imidazo[1,2-a]pyrazin-8-yl]amino]-2-ethylbenzamide]	–	IC90 [3]: 0.17 µM
CCc1cc(Nc2nccn3c(-c4cn(CC#N)nc4C(F)(F)F)cnc23)ccc1C(=O)NOCCN [Example 228, N-(2-aminoethoxy)-4-[[3-[1-(cyanomethyl)-3-(trifluoromethyl)pyrazol-4-yl]imidazo[1,2-a]pyrazin-8-yl]amino]-2-ethylbenzamide formate]	0.409	–
CCc1cc(Nc2nccn3c(-c4c[nH]nc4C(F)(F)F)cnc23)ccc1C(=O)NCCN [Example 229, N-(2-aminoethyl)-2-ethyl-4-[[3-[3-(trifluoromethyl)-1H-pyrazol-4-yl]imidazo[1,2-a]pyrazin-8-yl]amino]benzamide formate]	1.1	–
CCNC(=O)c1ccc(Nc2nccn3c(-c4cn(CC#N)nc4C(F)(F)F)cnc23)cc1Cl [Example 230, 2-chloro-4-[[3-[1-(cyanomethyl)-3-(trifluoromethyl)pyrazol-4-yl]imidazo[1,2-a]pyrazin-8-yl]amino]-N-ethylbenzamide]	–	IC90 [3]: 0.091 µM
N#CCNC(=O)c1ccc(Nc2nccn3c(-c4cn(CC#N)nc4C(F)(F)F)cnc23)cc1Cl [Example 231, 2-chloro-N-(cyanomethyl)-4-[[3-[1-(cyanomethyl)-3-(trifluoromethyl)pyrazol-4-yl]imidazo[1,2-a]pyrazin-8-yl]amino]benzamide]	–	IC90 [3]: 0.102 µM
C#CC(C)n1cc(-c2cnc3c(Nc4ccc(C(=O)NCCOCCN)c(CC)c4)nccn23)c(C(F)(F)F)n1 (centres unmarked) [Example 232, N-[2-(2-aminoethoxy)ethyl]-4-[[3-[1-but-3-yn-2-yl-3-(trifluoromethyl)pyrazol-4-yl]imidazo[1,2-a]pyrazin-8-yl]amino]-2-ethylbenzamide formate]	0.124	–
N[C@@H]1CC[C@H](NC(=O)N2CCN(C(=O)c3ccc(Nc4nccn5c(-c6c[nH]nc6C(F)(F)F)cnc45)cc3Cl)CC2)C1 [Example 233, N-[(1S,3R)-3-aminocyclopentyl]-4-[2-chloro-4-[[3-[3-(trifluoromethyl)-1H-pyrazol-4-yl]imidazo[1,2-a]pyrazin-8-yl]amino]benzoyl] piperazine-1-carboxamide formate]	–	IC90 [1]: 0.169 µM
N#CCn1cc(-c2cnc3c(Nc4ccc(C(=O)NCCO)c(Cl)c4)nccn23)c(C(F)(F)F)n1 [Example 234, 2-chloro-4-[[3-[1-(cyanomethyl)-3-(trifluoromethyl)pyrazol-4-yl]imidazo[1,2-a]pyrazin-8-yl]amino]-N-(2-hydroxyethyl) benzamide]	–	IC90 [1]: 0.189 µM

Reference: patent US20230203043A1, “NOVEL IMIDAZOPYRAZINE DERIVATIVES” (Hoffmann-La Roche Inc., priority 2020, published 2023)
